Measurements reported in patent publication US4547488A, “Antibiotic M43D, pharmaceutical compositions and method of use” (priority 1984, dated 1985).
Values after ≈ are worked out from the molar mass of the structure shown.

Key:
Test in all cases: agar-dilution MIC
Assay type in all cases: cell-based
[1] = test system: Streptococcus pyogenes C203
[2] = test system: Streptococcus faecium ATCC 9790
[3] = test system: Streptococcus sp. group D 2041
[4] = test system: Haemophilus influenzae C.L.
[5] = test system: Haemophilus influenzae 76
[6] = test system: Klebsiella pneumoniae X68
[7] = test system: Klebsiella pneumoniae KAE

For `CN[C@H](CC(C)C)C(=O)N[C@H]1C(=O)N[C@@H](CC(N)=O)C(=O)N[C@H]2C(=O)N[C@H]3C(=O)N[C@H](C(=O)N[C@H](C(=O)O)c4cc(O)cc(O)c4-c4cc3ccc4O)[C@H](O)c3ccc(c(Cl)c3)Oc3cc2cc(c3O[C@@H]2O[C@H](CO)[C@@H](O)[C@H](O)[C@H]2O[C@H]2C[C@](C)(N)[C@H](O)[C@H](C)O2)Oc2ccc(cc2Cl)[C@H]1O` [Vancomycin], the MIC [1] was 0.5 µg/mL (≈ 0.345 µM), the MIC [2] was 1 µg/mL (≈ 0.69 µM) and the MIC [3] was 4 µg/mL (≈ 2.76 µM). For the same molecule, the MIC [4] was 64 µg/mL (≈ 44.2 µM), the MIC [5] was 128 µg/mL (≈ 88.3 µM) and the MIC [6] was greater than 128 µg/mL. It also gave an MIC [7] greater than 128 µg/mL.
